From patent publication US20250382344A1, “Soluble GLP1/GIP/NPY2 Receptor Triple Agonists” (Boehringer Ingelheim International GmH, priority 2024, published 2025)
Read-outs that look alike come from different tables or passages of the source.

What was measured:
[1] = target: T1, hGIPR (Homo sapiens, UniProt P48546); experiment: hGIPR CreLuc assay in 0.5% and 100% plasma (CHO CRE-luciferase reporter cells); format: cell-based; details: 0.5% human plasma
T1 construct: expressed in transfected cells; host or cells: CHO CRE-luciferase reporter cells
T1 sequence (P48546 22-466): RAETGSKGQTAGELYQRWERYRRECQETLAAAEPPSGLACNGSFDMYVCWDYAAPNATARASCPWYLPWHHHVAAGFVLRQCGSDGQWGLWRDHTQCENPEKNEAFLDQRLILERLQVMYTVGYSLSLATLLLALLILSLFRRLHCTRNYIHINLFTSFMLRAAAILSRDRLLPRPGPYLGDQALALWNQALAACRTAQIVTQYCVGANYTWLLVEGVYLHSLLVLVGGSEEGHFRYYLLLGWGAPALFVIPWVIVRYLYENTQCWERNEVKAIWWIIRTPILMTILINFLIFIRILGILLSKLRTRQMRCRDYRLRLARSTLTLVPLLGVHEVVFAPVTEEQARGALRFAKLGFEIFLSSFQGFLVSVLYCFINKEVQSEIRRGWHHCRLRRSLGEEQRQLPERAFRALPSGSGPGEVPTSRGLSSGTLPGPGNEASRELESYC

[2] = Solubility in 0.1 M phosphate buffer at pH 7; format: physicochemical; details: 0.1 M phosphate buffer at pH 7, 10 mg/mL final peptide concentration, shaking 2 hours at room temperature, peptides as TFA-salts; measured sample pH 6.5-7.0

SMILES	EC50 ([1]; read-out: hGIPR 0.5% hP) [nM]	solubility at 2 h [2] [µg/mL]	EC50 ([1]; hGIPR 0.5% hP (nM)) [nM]
CC[C@H](C)[C@H](NC(=O)[C@H](CC(C)C)NC(=O)[C@H](Cc1c[nH]cn1)NC(=O)[C@H](CCCNC(=N)N)NC(=O)[C@@H](NC(=O)[C@H](Cc1ccccc1)NC(=O)[C@H](C)NC(=O)C(C)(C)NC(=O)[C@H](CCC(N)=O)NC(=O)[C@H](C)NC(=O)[C@H](CCC(N)=O)NC(=O)[C@H](CCCCN)NC(=O)[C@H](CCC(=O)O)NC(=O)[C@H](CC(C)C)NC(=O)C(C)(C)NC(=O)[C@@H](NC(=O)[C@H](CO)NC(=O)[C@H](Cc1ccc(O)cc1)NC(=O)[C@H](CC(=O)O)NC(=O)[C@H](CO)NC(=O)[C@@H](NC(=O)[C@H](Cc1ccccc1)NC(=O)[C@@H](NC(=O)CNC(=O)[C@H](CCC(=O)O)NC(=O)C(C)(C)NC(=O)[C@@H](N)Cc1ccc(O)cc1)[C@@H](C)O)[C@@H](C)O)[C@@H](C)CC)C(C)C)C(=O)N[C@@H](CC(N)=O)C(=O)N[C@@H](CCCCNC(=O)[C@@H](N)CCCCNC(=O)CC[C@H](NC(=O)CC[C@H](NC(=O)CC[C@H](NC(=O)CC[C@H](NC(=O)CC[C@H](NC(=O)CC[C@H](NC(=O)CC[C@H](NC(=O)CCCCCCCCCCCCCCCCCCC(=O)O)C(=O)O)C(=O)O)C(=O)O)C(=O)O)C(=O)O)C(=O)O)C(=O)O)C(=O)NC(C)(C)C(=O)N[C@H](C(=O)N[C@@H](CCCNC(=N)N)C(=O)N[C@@H](CCC(N)=O)C(=O)N[C@@H](CCCNC(=N)N)C(=O)N[C@@H](Cc1ccc(O)cc1)C(N)=O)[C@@H](C)O [Compound 35, Y-Aib-E-G-T-F-T-S-D-Y-S-I-Aib-L-E-K-Q-A-Q-Aib-A-F-V-R-H-L-I-N-K(1,3)-Aib-T-R-Q-R-Y-NH2.C20DA-gGlu-gGlu-gGlu-gGlu-gGlu-gGlu-gGlu-eLys(1,2)]	0.7	5200	
CC[C@H](C)[C@H](NC(=O)[C@H](CC(C)C)NC(=O)[C@H](Cc1c[nH]cn1)NC(=O)[C@H](CCCNC(=N)N)NC(=O)[C@@H](NC(=O)[C@H](Cc1ccccc1)NC(=O)[C@H](C)NC(=O)C(C)(C)NC(=O)[C@H](CCC(N)=O)NC(=O)[C@H](C)NC(=O)[C@H](CCC(N)=O)NC(=O)[C@H](CCCCN)NC(=O)[C@H](CCC(=O)O)NC(=O)[C@H](CC(C)C)NC(=O)C(C)(C)NC(=O)[C@@H](NC(=O)[C@H](CO)NC(=O)[C@H](Cc1ccc(O)cc1)NC(=O)[C@H](CC(=O)O)NC(=O)[C@H](CO)NC(=O)[C@@H](NC(=O)[C@H](Cc1ccccc1)NC(=O)[C@@H](NC(=O)CNC(=O)[C@H](CCC(=O)O)NC(=O)C(C)(C)NC(=O)[C@@H](N)Cc1ccc(O)cc1)[C@@H](C)O)[C@@H](C)O)[C@@H](C)CC)C(C)C)C(=O)N[C@@H](CC(N)=O)C(=O)N[C@@H](CCCCNC(=O)[C@@H](N)CCNC(=O)CC[C@H](NC(=O)CC[C@H](NC(=O)CC[C@H](NC(=O)CC[C@H](NC(=O)CC[C@H](NC(=O)CC[C@H](NC(=O)CCCCCCCCCCCCCCCCCCC(=O)O)C(=O)O)C(=O)O)C(=O)O)C(=O)O)C(=O)O)C(=O)O)C(=O)NC(C)(C)C(=O)N[C@H](C(=O)N[C@@H](CCCNC(=N)N)C(=O)N[C@@H](CCC(N)=O)C(=O)N[C@@H](CCCNC(=N)N)C(=O)N[C@@H](Cc1ccc(O)cc1)C(N)=O)[C@@H](C)O [Compound 46, Y-Aib-E-G-T-F-T-S-D-Y-S-I-Aib-L-E-K-Q-A-Q-Aib-A-F-V-R-H-L-I-N-K(1,3)-Aib-T-R-Q-R-Y-NH2.C20DA-gGlu-gGlu-gGlu-gGlu-gGlu-gGlu-gDab(1,2)]	0.8	4200	
CC[C@H](C)[C@H](NC(=O)[C@H](CC(C)C)NC(=O)[C@H](Cc1c[nH]cn1)NC(=O)[C@H](CCCNC(=N)N)NC(=O)[C@@H](NC(=O)[C@H](Cc1ccccc1)NC(=O)[C@H](C)NC(=O)C(C)(C)NC(=O)[C@H](CCC(N)=O)NC(=O)[C@H](C)NC(=O)[C@H](CCC(N)=O)NC(=O)[C@H](CCCCN)NC(=O)[C@H](CCC(=O)O)NC(=O)[C@H](CC(C)C)NC(=O)C(C)(C)NC(=O)[C@@H](NC(=O)[C@H](CO)NC(=O)[C@H](CC(C)C)NC(=O)[C@H](CC(=O)O)NC(=O)[C@H](CO)NC(=O)[C@@H](NC(=O)[C@H](Cc1ccccc1)NC(=O)[C@@H](NC(=O)CNC(=O)[C@H](CCC(=O)O)NC(=O)C(C)(C)NC(=O)[C@@H](N)Cc1ccc(O)cc1)[C@@H](C)O)[C@@H](C)O)[C@@H](C)CC)C(C)C)C(=O)N[C@@H](CC(N)=O)C(=O)N[C@@H](CCCCNC(=O)CC[C@H](NC(=O)CC[C@H](NC(=O)CC[C@H](NC(=O)CC[C@H](NC(=O)CC[C@H](NC(=O)CC[C@H](NC(=O)CCCCCCCCCCCCCCCCCCC(=O)O)C(=O)O)C(=O)O)C(=O)O)C(=O)O)C(=O)O)C(=O)O)C(=O)NC(C)(C)C(=O)N[C@H](C(=O)N[C@@H](CCCNC(=N)N)C(=O)N[C@@H](CCC(N)=O)C(=O)N[C@@H](CCCNC(=N)N)C(=O)N[C@@H](Cc1ccc(O)cc1)C(N)=O)[C@@H](C)O [Compound 51, Y-Aib-E-G-T-F-T-S-D-L-S-I-Aib-L-E-K-Q-A-Q-Aib-A-F-V-R-H-L-I-N-K(1,3)-Aib-T-R-Q-R-Y-NH2.C20DA-gGlu-gGlu-gGlu-gGlu-gGlu-gGlu(1,2)]		9300	0.5
CC[C@H](C)[C@H](NC(=O)[C@H](CC(C)C)NC(=O)[C@H](Cc1c[nH]cn1)NC(=O)[C@H](CCCNC(=N)N)NC(=O)[C@@H](NC(=O)[C@H](Cc1ccccc1)NC(=O)[C@H](C)NC(=O)C(C)(C)NC(=O)[C@H](CCC(N)=O)NC(=O)[C@H](C)NC(=O)[C@H](CCC(N)=O)NC(=O)[C@H](CCCCN)NC(=O)[C@H](CCC(=O)O)NC(=O)[C@H](CC(C)C)NC(=O)C(C)(C)NC(=O)[C@@H](NC(=O)[C@H](CO)NC(=O)[C@H](Cc1ccc(O)cc1)NC(=O)[C@H](CC(=O)O)NC(=O)[C@H](CO)NC(=O)[C@@H](NC(=O)[C@H](Cc1ccccc1)NC(=O)[C@@H](NC(=O)CNC(=O)[C@H](CCC(=O)O)NC(=O)C(C)(C)NC(=O)[C@@H](N)Cc1ccc(O)cc1)[C@@H](C)O)[C@@H](C)O)[C@@H](C)CC)C(C)C)C(=O)N[C@@H](CC(N)=O)C(=O)N[C@@H](CCCCNC(=O)[C@@H](N)CCCCNC(=O)CC[C@H](NC(=O)CC[C@H](NC(=O)CC[C@H](NC(=O)CC[C@H](NC(=O)CC[C@H](NC(=O)CCCCCCCCCCCCCCCCCCC(=O)O)C(=O)O)C(=O)O)C(=O)O)C(=O)O)C(=O)O)C(=O)NC(C)(C)C(=O)N[C@H](C(=O)N[C@@H](CCCNC(=N)N)C(=O)N[C@@H](CCC(N)=O)C(=O)N[C@@H](CCCNC(=N)N)C(=O)N[C@@H](Cc1ccc(O)cc1)C(N)=O)[C@@H](C)O [Compound 59, Y-Aib-E-G-T-F-T-S-D-Y-S-I-Aib-L-E-K-Q-A-Q-Aib-A-F-V-R-H-L-I-N-K(1,3)-Aib-T-R-Q-R-Y-NH2.C20DA-gGlu-gGlu-gGlu-gGlu-gGlu-eLys(1,2)]	0.4	2100	
